Results reported in publication PMC12486440, “Design, synthesis, and in silico studies of new benzofuran–pyrazole hybrids as multi-kinase inhibitors with potential antiproliferative activity” (RSC Advances, 2025).

What was measured:
HL-60(TB) = details: single dose 10 μM; leukemia
[1] = system: NCI 60 cancer cell line panel; test: NCI 60 full panel summary; details: single dose 10 μM; mean over the NCI 60 panel
CCRF-CEM = details: single dose 10 μM; leukemia
K-562 = details: single dose 10 μM; leukemia
MOLT-4 = details: single dose 10 μM; leukemia
RPMI-8226 = details: single dose 10 μM; leukemia
SR = details: single dose 10 μM; leukemia
A549/ATCC = details: single dose 10 μM; non-small lung carcinoma
EKVX = details: single dose 10 μM; non-small lung carcinoma
HOP-62 = details: single dose 10 μM; non-small lung carcinoma
NCI-H226 = details: single dose 10 μM; non-small lung carcinoma
NCI-H23 = details: single dose 10 μM; non-small lung carcinoma
NCI-H522 = details: single dose 10 μM; non-small lung carcinoma
HCT-15 = details: single dose 10 μM; colon cancer
KM12 = details: single dose 10 μM; colon cancer
SW-620 = details: single dose 10 μM; colon cancer
SF-268 = details: single dose 10 μM; CNS cancer
SF-295 = details: single dose 10 μM; CNS cancer
SF-539 = details: single dose 10 μM; CNS cancer
SNB-19 = details: single dose 10 μM; CNS cancer
SNB-75 = details: single dose 10 μM; CNS cancer
LOX IMVI = details: single dose 10 μM; melanoma
MALME-3M = details: single dose 10 μM; melanoma
SK-MEL-2 = details: single dose 10 μM; melanoma
SK-MEL-5 = details: single dose 10 μM; melanoma
UACC-257 = details: single dose 10 μM; melanoma
OVCAR-5 = details: single dose 10 μM; ovarian carcinoma
SK-OV-3 = details: single dose 10 μM; ovarian carcinoma
786–0 = details: single dose 10 μM; renal carcinoma
A498 = details: single dose 10 μM; renal carcinoma
CAKI-1 = details: single dose 10 μM; renal carcinoma
SN12C = details: single dose 10 μM; renal carcinoma
UO-31 = details: single dose 10 μM; renal carcinoma
PC-3 = details: single dose 10 μM; prostate carcinoma
DU-145 = details: single dose 10 μM; prostate carcinoma
MCF7 = details: single dose 10 μM; breast carcinoma
BT-549 = details: single dose 10 μM; breast carcinoma
T-47D = details: single dose 10 μM; breast carcinoma
MDA-MB-468 = details: single dose 10 μM; breast carcinoma
HOP-92 = details: single dose 10 μM; non-small lung carcinoma
HT29 = details: single dose 10 μM; colon cancer
M14 = details: single dose 10 μM; melanoma
SK-MEL-28 = details: single dose 10 μM; melanoma
UACC-62 = details: single dose 10 μM; melanoma
RXF 393 = details: single dose 10 μM; renal carcinoma
TK-10 = details: single dose 10 μM; renal carcinoma

Compound	GI% (HL-60(TB))	Mean GI% [1]	GI% (CCRF-CEM)	GI% (K-562)	GI% (MOLT-4)	GI% (RPMI-8226)	GI% (SR)	GI% (EKVX)	GI% (NCI-H226)	GI% (NCI-H522)	GI% (HCT-15)	GI% (SF-268)	GI% (SF-295)	GI% (SF-539)	GI% (SNB-19)	GI% (MALME-3M)	GI% (SK-MEL-5)	GI% (UACC-257)	GI% (OVCAR-5)	GI% (786–0)	other results
COc1ccc(C2=NN(C(C)=O)C(c3cn(-c4ccccc4)nc3-c3cc4ccccc4o3)C2)cc1OC (centres unmarked) [4c, 1-(5-(3-(Benzofuran-2-yl)-1-phenyl-1H-pyrazol-4-yl)-3-(3,4-dimethoxyphenyl)-4,5-dihydropyrazol-1-yl)ethanone]	12.17%	2.51%	9.93%	7.80%	8.51%	11.35%	16.71%	2.78%	1.68%	1.54%	2.45%	4.67%	4.33%	1.95%	6.15%	3.54%	5.22%	6.12%	5.34%	4.42%	GI% (A549/ATCC): 2.60%; GI% (HOP-62): 3.35%; GI% (NCI-H23): 3.23%; GI% (KM12): 1.20%; GI% (SW-620): 4.67%; GI% (SNB-75): 14.70%; GI% (LOX IMVI): 3.27%; GI% (SK-MEL-2): 1.30%; GI% (SK-OV-3): 7.21%; GI% (A498): 3.05%; GI% (CAKI-1): 13.64%; GI% (SN12C): 10.86%; GI% (UO-31): 11.00%; GI% (PC-3): 3.89%; GI% (DU-145): 1.59%; GI% (MCF7): 8.83%; GI% (BT-549): 3.97%; GI% (T-47D): 5.68%; GI% (MDA-MB-468): 8.49%
CC(=O)N1N=C(c2nc3ccccc3[nH]2)CC1c1cn(-c2ccccc2)nc1-c1cc2ccccc2o1 (centres unmarked) [4d, 1-(5-(3-(Benzofuran-2-yl)-1-phenyl-1H-pyrazol-4-yl)-3-(1H-benzo[d]imidazol-2-yl)-4,5-dihydropyrazol-1-yl)ethanone]	5.44%	1.26%	10.91%	2.81%	5.60%	4.74%	18.72%	5.61%	3.03%	1.70%	1.38%	1.38%	9.71%	0.68%	4.75%	5.76%	0.87%	1.22%	6.06%	4.06%	GI% (HOP-92): 8.82%; GI% (HT29): 0.62%; GI% (M14): 2.74%; GI% (SK-MEL-28): 1.16%; GI% (UACC-62): 2.82%; GI% (A498): 5.12%; GI% (CAKI-1): 7.51%; GI% (RXF 393): 2.67%; GI% (SN12C): 6.54%; GI% (TK-10): 15.06%; GI% (UO-31): 13.92%; GI% (PC-3): 5.99%; GI% (MCF7): 5.40%; GI% (BT-549): 9.21%; GI% (T-47D): 18.84%
